The text below walks through data of patent publication US12514856B2, “Pediatric trazodone compositions and method of treatment thereof” (ANGELINI S.p.A., priority 2019, dated 2026).

The nature of one series: Caco-2 permeability. The note with it: human. Format: in vitro ADME. An excerpt: (§1) Derivation of key parameters is described below.
Series [1] in a line: PBPK modelling (Simcyp Population-Based Simulator). The note with it: ER; fitting of concentration-time data following a single oral dose of 300 mg ER trazodone.
The test system of the next series is human liver microsome. The series can be described thus: Additional HLM CLint (retrograde calculation). As to conditions: 30% of hepatic metabolism assigned to undefined pathways.
Description: as §1

A short description of series [2]: Physical chemistry of trazodone. The format is physicochemical.
Description: as §1

Series [3] deals with children with insomnia affected by NDDs. Briefly: Phase II trial in children with insomnia affected by NDDs. Format: in vivo, human. The method, then: Three different doses, 0.25/0.4 and 0.5 mg/kg/day were administered at bedtime in fruit juice (in a volume of about 200 mL) in the pediatric population of from 2 to 17 years old.
A multi-centre, randomised, parallel-group, single-blind phase II trial was designed, based on the prediction described in the previous Example 3, to evaluate the pharmacokinetics and PKPD relationship of trazodone after single and repeated oral doses in children from 2 to years of age, suffering from insomnia, affected by neurodevelopmental disorders (NDDs: autism spectrum disorder, intellectual disability or attention deficit hyperactivity disorder). The single-blind phase II trial is still ongoing.
The primary objective of this study is to assess the pharmacokinetics (PK) of trazodone after single and repeated doses in patients aged from 2 to years.
Among the secondary objectives of this study, there are the establishment of the pharmacokinetic-pharmacodynamic (PKPD) relationship of trazodone, as assessed by actigraphy measures, and the definition of the dose rationale in children and adolescents aged from […] taking into account the therapeutic exposure range in adults.
The parent's diary will also be used in the evaluation of the results. This phase II clinical trial is designed to assess the PK and PD of 3 dose levels of trazodone in children with insomnia affected by NDDs. A minimum of 36 patients will be randomly assigned (at least 30 evaluable patients, 10 for each treatment arm; at least 10 evaluable patients aged 2 to years, 10 evaluable patients aged 6 to […], 10 evaluable patients aged 12 to years; at least 3 patients for each age and treatment arm).
Patients are initially assigned to one of the 3 treatment arms. Patients in treatment arms 2 and 3 will receive 0.25 mg/kg/day for 3 days followed by a higher maintenance dose for 7 days: • Treatment arm 1: 0.25 mg/kg/day (on days 1 through 10) • Treatment arm 2: 0.4 mg/kg/day (0.25 mg/kg/day on days 1 through 3 and 0.4 mg/kg/day on days 4 through 10) • Treatment arm 3: 0.5 mg/kg/day (0.25 mg/kg/day on days 1 through 3 and 0.5 mg/kg/day on days 4 through 10).
Patients qualifying for the participation in the study at visit 1 (day 1, randomisation—first dose) have been admitted to the clinic at 2 out of 3 visits, according to a patient-specific PK sampling scheme. Due to the requirement of sparse sampling, each patient will contribute a total of 5 PK samples.
Sleep latency and total sleeping time have been recorded by actigraphy starting from 3 consecutive days prior to visit 1 up to the end of the treatment.
An interim analysis has been performed after completion of 18 patients to assess whether data collected allows the determination of the relevant PK parameters with the appropriate precision. The 18 patients are so distributed according treatment arms: 3 patients in treatment arm 1, 5 patients in treatment arm 2, 10 patients in treatment arm 3.

The target in the next series is CYP3A4 (Homo sapiens, UniProt P08684). The series can be described thus: CYP3A4-mediated metabolism (retrograde calculation).
A short description of series [4]: Blood binding (E:P ratio, equilibrium dialysis). The format is in vitro ADME.
Description: as §1
(In equilibrium dialysis only unbound substance equilibrates across the membrane.)

Series [5] can be described thus: Toxicological Risk Assessment of excipients in oral drops (MDI vs ADI). As to conditions: Maximum Daily Therapeutic Dose up to 0.5 mg/kg/day; for MDI (for 2 years aged children): Trazodone HCl 1.5% oral solution; for MDI (for 6 years aged children): Trazodone HCl 3.0% oral solution. On the set-up: species or system children. How it is done:
The Toxicological Risk Assessment of the formulations was performed to evaluate the safety of the excipients employed in the two oral drops formulations for pediatric use.

For series [6] the following is noted: cited from earlier work.
Setting [7] is: alternative value printed beside the first (EMA 2014; FDA 1998 USA; EFSA 2014; JECFA 1973).
The mark [8] stands for this setting: first-listed value/reference (JECFA, SCF).

Where “and” joins values, the source holds several entries; their conditions need not be identical. Identical values can stand only once. Like-named read-outs stand apart in the source and are kept apart here.

What is called Papp is a coefficient for how fast a substance crosses the barrier. A word on the pKa: it is the negative logarithm of the acid dissociation constant. High values mean a weaker acid or stronger base, low ones a stronger acid or weaker base.

Sequence of CYP3A4 (P08684 whole entry): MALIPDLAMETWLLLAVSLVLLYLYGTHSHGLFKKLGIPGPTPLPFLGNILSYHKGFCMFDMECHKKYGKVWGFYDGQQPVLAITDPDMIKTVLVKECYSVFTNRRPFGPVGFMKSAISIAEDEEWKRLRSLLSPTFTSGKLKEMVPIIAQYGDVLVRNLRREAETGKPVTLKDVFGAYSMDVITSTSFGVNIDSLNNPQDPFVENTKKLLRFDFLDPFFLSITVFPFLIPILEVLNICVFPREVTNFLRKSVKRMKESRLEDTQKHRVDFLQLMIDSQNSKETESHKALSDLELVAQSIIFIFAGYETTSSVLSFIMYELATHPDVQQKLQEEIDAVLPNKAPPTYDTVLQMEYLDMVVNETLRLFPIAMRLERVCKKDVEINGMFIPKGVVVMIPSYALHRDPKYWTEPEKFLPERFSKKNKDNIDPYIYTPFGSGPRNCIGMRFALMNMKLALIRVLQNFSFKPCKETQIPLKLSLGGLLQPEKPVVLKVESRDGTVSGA

`COCCc1ccc(OCC(O)CNC(C)C)cc1` (stereo not shown) [metoprolol]: the apparent permeability coefficient (Papp) in the series “Caco-2 permeability” (Caco-2) was determined as 28.1 ×10⁻⁶ cm/s.
`O=c1n(CCCN2CCN(c3cccc(Cl)c3)CC2)nc2ccccn12` [trazodone]: the ka result in series [1] was “ER: 0.07 hr^−1”. Also, the “Additional HLM CLint” value in the series with human liver microsome was 25.7 µL/min/mg. In series [2], the “solubility as a function of pH” value was “fully soluble only at acidic pH and precipitates at pH values close to neutrality”. Besides, the pKa in series [2] (Monoprotic Base) was 6.61. In addition, in the series “Caco-2 permeability” (Caco-2 cells, read-out: mean Papp), the Papp turned out to be 24.2 ×10⁻⁶ cm/s. The “cumulative total sleep time” value in [3] (actigraphy, patients showing higher exposure to trazodone) is “slightly longer sleep time”. Further, in series [3] (interim analysis), the “correlation between secondary PK parameters and relative change from baseline in total sleep time” value is given as “correlations were observed”. Moreover, the “Inter-individual variability in clearance estimates” value in series [3] (pediatric patients vs adult subjects, interim analysis) is recorded as “considerably higher than what has been observed previously in adult subject”. For the same molecule, the “dose proportionality of pharmacokinetics” value in series [3] (pediatric patients, 0.25/0.4/0.5 mg/kg/day, interim analysis of 18 patients) is given as “dose-proportional”. In addition, the sleep time entry in [3] (pediatric population with NDD, 0.4 and 0.5 mg/kg/day by drops, preliminary) is on record as “increase the sleep time”. This molecule also returned a total sleep time in series [3] (visit 3, small proportion of patients assigned to 0.4 and 0.5 mg/kg dose, actigraphy) greater than 9 h. For the same molecule, the “CLint, CYP3A4” value on CYP3A4 (Retrograde calculation, 70% of hepatic metabolism assigned to CYP3A4) is 0.438 µL/min/pmol. Moreover, the fmCYP3A4 on CYP3A4 (estimation of CYP3A4-mediated metabolism) is 70%. Moreover, the B/P in series [4] (blood to plasma, calculated from measured E:P ratio) is reported as 0.68. In addition, in series [4] (erythrocyte to plasma ratio), the “E:P ratio” value is listed as “of 0.2”. Also, in series [4] (fraction unbound in plasma, equilibrium dialysis), the fup was 0.0354.
Turning to `CCCOC(=O)c1cc(O)c(O)c(O)c1` [Propyl gallate], in series [5], the “MDI (for 2 years aged children)” value is given as 0.03 mg/kg/day and the “MDI (for 6 years aged children)” value worked out at 0.02 mg/kg/day. In series [6] (setting [7]), the ADI is 0.5 mg/kg/day. For the same molecule, the ADI in series [6] (setting [8]) is on record as 1.4 mg/kg/day.
Take `[Na+].[OH-]` [Sodium hydroxide]: in [5], the “MDI (for 2 years aged children)” value came to 0.04 mg/kg/day and the “MDI (for 6 years aged children)” value is 0.02 mg/kg/day. The ADI result in [6] (setting [8]) is given as “Not limited”.
`C/C=C/C=C/C(=O)[O-].[K+]` [K-Sorbate]: the ADI in [6] (setting [7]) was 11 mg/kg/day; in series [6] (setting [8]) it was 3 mg/kg/day.
With `O=C(O)CC(O)(CC(=O)O)C(=O)O` [Citric acid anhydrous], in [5], the “MDI (for 2 years aged children)” value was 0.17 mg/kg/day and the “MDI (for 6 years aged children)” value is given as 0.08 mg/kg/day.
As for `O=C([O-])c1ccccc1.[Na+]` [Sodium Benzoate], the ADI in series [6] (setting [8]) was 5 mg/kg/day.
On to `OC[C@H]1O[C@@](CO)(O[C@H]2O[C@H](CO)[C@@H](O)[C@H](O)[C@H]2O)[C@@H](O)[C@@H]1O` [Sucrose], for which the ADI entry in [6] (setting [8]) is “GRAS”.
Regarding `COC(=O)c1ccc(O)cc1` [methyl parahydroxybenzoate], the ADI in series [6] (setting [8]) is given as 10 mg/kg/day.
Turning to `CC(O)CO` (stereo not shown) [Propylene glycol], the “MDI (for 2 years aged children)” value in series [5] is given as 10.00 mg/kg/day. Besides, the “MDI (for 6 years aged children)” value in series [5] is listed as 5.00 mg/kg/day. In addition, the ADI in series [6] (setting [7]) is on record as 50 mg/kg/day; in series [6] (setting [8]), 25 mg/kg/day.
Take `OC[C@H]1O[C@H](O[C@]2(CCl)O[C@H](CCl)[C@@H](O)[C@@H]2O)[C@H](O)[C@@H](O)[C@H]1Cl` [Sucralose]: the “MDI (for 2 years aged children)” value in series [5] was determined as 0.05 mg/kg/day. Besides, in series [5], the “MDI (for 6 years aged children)” value is given as 0.03 mg/kg/day. The ADI is 5 mg/kg/day and 5 (USA) mg/kg/day in series [6] (setting [7]); 15 (UE) mg/kg/day and 15 mg/kg/day and 15 (UE)^ mg/kg/day in [6] (setting [8]).
For the molecule `O=C([O-])CN(CCN(CC(=O)[O-])CC(=O)O)CC(=O)O.[Na+].[Na+]` [Disodium edetate], in [5], the “MDI (for 2 years aged children)” value is listed as 0.02 mg/kg/day and the “MDI (for 6 years aged children)” value is on record as 0.01 mg/kg/day. The ADI in [6] (setting [7]) is recorded as 2.5 mg/kg/day. For the same molecule, the ADI in [6] (setting [8]) is 1.9 mg/kg/day and 1.9 (ex- mg/kg/day.
